Among the test systems are A549; SK-MEL-28; MDA-MB-435; HCT-15; IGROV-1; LOX IMVI; BT-549; SR; K562; HOP-62; NCI-H23; SK-OV-3; HT-29; M14; OVCAR-3; NCI-H226; RPMI-8226; COLO 205; U-251; ACHN.
Assay in all cases: DTP human tumour cell line panel, 48 h

Each structure is given as a SMILES string.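 Five compound concentrations were applied to cells in 96-well plates for 48 hours; endpoints were derived by simple linear interpolation of the resulting dose-response curve. At the GI50, growth is halved.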 Calls of active or inactive are those of the source. Cut-off read from the data, not from the text of the source: active = GI50 up to about 1.1 µM and inactive = higher. A value given as a limit tells only on which side of the number the result lay.

For orientation: GI50 means the concentration that inhibits growth by half.

As for `COC(=O)C1=C(C=O)C2C=CC1C2` (stereo not drawn), the GI50 in the assay on A549 is > 100 µM (inactive); with SK-MEL-28 it was > 64.3 µM (inactive); in the assay with MDA-MB-435 it was > 100 µM (inactive); in the assay on HCT-15, 42.1 µM; in the assay with IGROV-1, > 100 µM (inactive); in the assay with LOX IMVI, > 60.5 µM (inactive). Also, the GI50 was > 100 µM (inactive) in the assay on BT-549; > 56.6 µM (inactive) in the assay on SR; 34.2 µM (inactive) in the assay with K562; > 100 µM (inactive) with HOP-62; > 97.5 µM (inactive) in the assay with NCI-H23; > 68.7 µM (inactive) in the assay with SK-OV-3. Besides, the GI50 in the assay on HT-29 was > 66.2 µM (inactive); in the assay on M14 it was 45.1 µM (inactive); with OVCAR-3, 55.8 µM (inactive); in the assay on NCI-H226, > 100 µM (inactive); with RPMI-8226 it was 51.1 µM (inactive); in the assay with COLO 205, 46.3 µM (inactive). In addition, the GI50 in the assay with U-251 is > 88.5 µM (inactive); in the assay with ACHN, > 67.9 µM (inactive).

For the compound `COc1ccc(C(=O)c2[nH]c(Nc3cc(C)ccn3)c(C(=S)Nc3ccccc3)c2N)cc1`, the GI50 was 23.4 µM (inactive) in the assay on A549; 17 µM (inactive) in the assay with SK-MEL-28; 19.4 µM (inactive) in the assay on MDA-MB-435; 21.1 µM in the assay with HCT-15; 12.2 µM (inactive) with IGROV-1; 18.7 µM (inactive) with LOX IMVI. Also, the GI50 was 19.6 µM (inactive) in the assay with BT-549; 15.2 µM (inactive) with SR; 25.1 µM (inactive) in the assay with K562; 24.7 µM (inactive) in the assay with HOP-62; 21.9 µM (inactive) in the assay on NCI-H23; 19.5 µM (inactive) with SK-OV-3. The GI50 in the assay with HT-29 was 17.5 µM (inactive); with M14, 20.5 µM (inactive); with OVCAR-3, 41.6 µM (inactive); in the assay with NCI-H226 it was 17.1 µM (inactive); with RPMI-8226 it was 13.3 µM (inactive); in the assay with COLO 205 it was 19.4 µM (inactive). Moreover, the GI50 is 15.3 µM (inactive) with U-251 and 30.4 µM (inactive) with ACHN.

`N/C(CSCCSC/C(N)=N/O)=N\O`: the GI50 with A549 was > 100 µM (inactive); with SK-MEL-28 it was > 100 µM (inactive); with MDA-MB-435, > 100 µM (inactive); with HCT-15 it was greater than 100 µM; in the assay with IGROV-1, > 100 µM (inactive); in the assay with LOX IMVI it was > 100 µM (inactive). Besides, the GI50 in the assay on BT-549, in the assay on SR, in the assay on K562, in the assay with HOP-62, in the assay on NCI-H23 and in the assay on SK-OV-3 was > 100 µM (inactive) in each case. In addition, the GI50 with HT-29, with M14, in the assay on OVCAR-3, in the assay with NCI-H226, with RPMI-8226 and in the assay on COLO 205 was > 100 µM (inactive) each time. Besides, the GI50 in the assay on U-251 and with ACHN was > 100 µM (inactive) each time.

Regarding `Cc1cc2nc3n(c2cc1C)C(c1c(F)cccc1F)SC3` (stereo not drawn), the GI50 in the assay with A549 is 23.7 µM (inactive); with SK-MEL-28, 19.1 µM (inactive); with MDA-MB-435, 14.2 µM (inactive); in the assay with HCT-15, greater than 10 µM; with IGROV-1, > 10 µM (inactive); in the assay on LOX IMVI it was 15.7 µM (inactive). Further, the GI50 with BT-549 was 28.1 µM (inactive); in the assay with SR, 12.7 µM (inactive); with K562 it was 17.6 µM (inactive); with HOP-62, 23.9 µM (inactive); in the assay with NCI-H23, 16.5 µM (inactive); in the assay with SK-OV-3 it was 62.7 µM (inactive). Also, the GI50 in the assay with HT-29 was 18.5 µM (inactive); with M14, 19.8 µM (inactive); in the assay with OVCAR-3 it was 35.3 µM (inactive); in the assay with NCI-H226, 10.5 µM (inactive); in the assay with RPMI-8226, 25.4 µM (inactive); in the assay with COLO 205, 20.7 µM (inactive). The GI50 is 16.1 µM (inactive) in the assay on U-251 and 17.4 µM (inactive) in the assay with ACHN.

In the case of `COC(=O)c1ccc(Cc2cc(Cc3ccc(C(=O)OC)cc3)cc(Cc3ccc(C(=O)OC)cc3)c2)cc1`, the GI50 with A549 was > 25 µM (inactive); with SK-MEL-28 it was > 25 µM (inactive); in the assay with MDA-MB-435 it was > 25 µM (inactive); with HCT-15 it was greater than 25 µM; in the assay with IGROV-1, > 25 µM (inactive); with LOX IMVI it was > 25 µM (inactive). Also, the GI50 in the assay on BT-549, in the assay on SR, with K562, in the assay with HOP-62, in the assay with SK-OV-3 and in the assay with HT-29 was > 25 µM (inactive) in each case. The GI50 with M14, in the assay with OVCAR-3, with NCI-H226, with RPMI-8226, in the assay on U-251 and in the assay on ACHN was > 25 µM (inactive) each time.

For `C=C(C)C(=O)O[C@H]1C[C@@]23O[C@@H]2CCC(=C[C@H]2OC(=O)C(=C)[C@H]12)COC3O` (stereo partly drawn), the GI50 was > 100 µM (inactive) with A549; 44.3 µM (inactive) with MDA-MB-435; 19.5 µM in the assay with HCT-15; > 100 µM (inactive) in the assay with IGROV-1; 14.9 µM (inactive) with LOX IMVI; 37.1 µM (inactive) in the assay on BT-549. Also, the GI50 is 24.7 µM (inactive) in the assay with SR; 20.2 µM (inactive) in the assay with K562; > 100 µM (inactive) with HOP-62; > 100 µM (inactive) with NCI-H23; > 100 µM (inactive) in the assay on SK-OV-3; 57.5 µM (inactive) in the assay on HT-29. The GI50 in the assay with M14 was 57.5 µM (inactive); in the assay on OVCAR-3, 49.5 µM (inactive); with NCI-H226 it was > 100 µM (inactive); in the assay with RPMI-8226, 23.4 µM (inactive); in the assay with COLO 205, 21.2 µM (inactive); in the assay on U-251, > 100 µM (inactive). Moreover, in the assay on ACHN, the GI50 was 39.9 µM (inactive).

On to `Cc1ccc2nc(-c3ccc(N4C(=O)C(Cl)C4c4ccc(Cl)cc4)cc3)sc2c1` (stereo not drawn), for which the GI50 in the assay on A549 is 17.3 µM (inactive); with SK-MEL-28, 8.75 µM (inactive); in the assay on MDA-MB-435 it was 17.4 µM (inactive); in the assay with HCT-15, 27.3 µM; with LOX IMVI it was 5.35 µM (inactive); in the assay with BT-549 it was 36.7 µM (inactive). The GI50 with SR was 24.2 µM (inactive); in the assay on K562, 24.5 µM (inactive); in the assay on HOP-62 it was 20.6 µM (inactive); in the assay with NCI-H23, 21.6 µM (inactive); in the assay on SK-OV-3, 12.7 µM (inactive); in the assay with HT-29 it was 1.95 µM (inactive). Further, the GI50 in the assay on M14 is 21.4 µM (inactive); in the assay on OVCAR-3, 16.3 µM (inactive); with NCI-H226 it was 13.8 µM (inactive); with RPMI-8226, 11.5 µM (inactive); in the assay on COLO 205, 14.6 µM (inactive); with U-251, 19.2 µM (inactive). In addition, the GI50 in the assay with ACHN was 22.4 µM (inactive).

Turning to `CC(=O)O[C@H]1C(=O)[C@@]2(C)[C@H]([C@H](OC(=O)c3ccco3)[C@]3(O)C[C@H](OC(=O)[C@H](O)[C@@H](NC(=O)c4ccccc4)c4ccccc4)C(C)=C1C3(C)C)[C@]1(OC(C)=O)CO[C@@H]1C[C@@H]2O`, the GI50 in the assay with A549 is 0.518 µM (active); with MDA-MB-435 it was 0.0165 µM (active); with HCT-15, 15.1 µM; with IGROV-1, 0.251 µM (active); with LOX IMVI, 0.129 µM (active); in the assay with BT-549 it was 2.81 µM (inactive). In addition, the GI50 in the assay on SR was 0.0809 µM (active); in the assay with K562 it was 0.078 µM (active); in the assay with HOP-62 it was 0.676 µM (active); in the assay with NCI-H23 it was 0.412 µM (active); in the assay with SK-OV-3, 0.287 µM (active); in the assay on HT-29 it was 0.0393 µM (active). Also, the GI50 in the assay with M14 was 0.421 µM (active); with OVCAR-3, 0.0612 µM (active); with NCI-H226, 0.429 µM (active); in the assay on RPMI-8226 it was 0.0189 µM (active); in the assay on COLO 205, 0.114 µM (active); in the assay on U-251 it was 0.125 µM (active). For the same compound, in the assay on ACHN, the GI50 is 7.98 µM (inactive).

Regarding `C=CCc1cccc2cc(C(N)=O)c(=N)oc12`, the GI50 with A549 was > 100 µM (inactive); with SK-MEL-28, > 100 µM (inactive); in the assay with MDA-MB-435 it was 95.7 µM (inactive); in the assay with HCT-15, greater than 100 µM; in the assay with IGROV-1 it was 23.8 µM (inactive); with LOX IMVI, 84.7 µM (inactive). Further, the GI50 in the assay with BT-549 was > 100 µM (inactive); in the assay on SR it was 40.6 µM (inactive); with HOP-62, > 100 µM (inactive); in the assay on NCI-H23, > 100 µM (inactive); in the assay on SK-OV-3, 90.2 µM (inactive); in the assay on HT-29, > 100 µM (inactive). In addition, the GI50 was > 100 µM (inactive) with M14; > 100 µM (inactive) in the assay on OVCAR-3; 43.9 µM (inactive) in the assay on NCI-H226; > 100 µM (inactive) with RPMI-8226; > 100 µM (inactive) with COLO 205; > 100 µM (inactive) in the assay on U-251. Also, the GI50 in the assay on ACHN was 61.9 µM (inactive).

With `O=C(O)Cc1cccc2c1OC(c1ccccc1)C(C(=O)c1ccccc1)C2=O` (stereo not drawn), the GI50 in the assay with A549 was 36.3 µM (inactive); with SK-MEL-28, 65.3 µM (inactive); with MDA-MB-435, 35 µM (inactive); in the assay with HCT-15, 98.4 µM; in the assay with IGROV-1 it was 38.7 µM (inactive); in the assay on LOX IMVI, 83.8 µM (inactive). Besides, the GI50 in the assay with BT-549 is > 100 µM (inactive); with SR it was 39.3 µM (inactive); in the assay on K562, 32.7 µM (inactive); in the assay on HOP-62, > 100 µM (inactive); in the assay with NCI-H23 it was 29.5 µM (inactive); with SK-OV-3 it was 2.07 µM (inactive). In addition, the GI50 in the assay with HT-29 is > 10 µM (inactive); in the assay on OVCAR-3, > 100 µM (inactive); in the assay on NCI-H226, > 100 µM (inactive); in the assay on RPMI-8226, 33.6 µM (inactive); in the assay on COLO 205 it was 67.6 µM (inactive); in the assay on U-251, 40.9 µM (inactive). In addition, the GI50 with ACHN was 40.3 µM (inactive).

The record behind these values is ChEMBL document CHEMBL1201862, “PubChem BioAssay data set” (2004).
